According to patent US20260295053A1, “COMPOUNDS FOR DEGRADATION AND INHIBITION OF KRAS (G12D) PROTEIN” (Shenzhen Ionova Life Science Co., Ltd., priority 2023, published 2026):

How the values were obtained:
[1] = molecular target: T1, KRAS (G12D) (Homo sapiens, UniProt P01116, G12D); assay: KRAS (G12D) cellular degradation assay in AsPC-1 cells; format: cell-based; details: 24 hours, antibody fluorescence (Odyssey CLX), DC50 half-maximal degradation concentration
T1 construct: in-cell western with KRAS G12D antibody after 24 h
T1 sequence (P01116 1-188 isoform P01116-2 G12D): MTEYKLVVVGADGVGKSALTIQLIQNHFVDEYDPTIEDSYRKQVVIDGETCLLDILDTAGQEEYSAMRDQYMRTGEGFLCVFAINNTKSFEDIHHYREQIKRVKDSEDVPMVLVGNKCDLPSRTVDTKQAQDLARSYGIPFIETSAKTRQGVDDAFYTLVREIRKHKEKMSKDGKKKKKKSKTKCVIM
Summary of the method: (§1)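 Proliferation IC50 comes from CellTiter Glo luminescence after 6 days' exposure of AsPC-1 (3,500 cells/well) to 1:3 dilutions from […] to 1.5 nM. KRAS G12D DC50 derives from in-cell immunofluorescence normalised to β-actin after 24 h treatment of near-confluent AsPC-1 cells over the same range.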

[2] = tested on: AsPC-1 cells; assay: AsPC-1 cell proliferation assay (CellTiter Glo); format: cell-based; details: Homo sapiens, ASPC1, 144 h, 6 days
Summary of the method: as §1

Row | SMILES | DC50 [1] | IC50 [2]
1 | Cc1ncsc1-c1ccc([C@@H](NC(=O)[C@@H]2C[C@@H](O)CN2C(=O)[C@H](C(C)C)n2cc(-c3ccc(COc4c(-c5c(C)c(F)cc6[nH]ncc56)c(C5CC5)cc5c(N6C[C@@H]7C[C@H]6CN7)nc(OC6CCC7(CC6)COC7)nc45)cc3)nn2)[C@H](C)O)cc1 [Example 96, (2S,4R)-1-((2S)-2-(4-(4-(((2-((2-oxaspiro[3.5]nonan-7-yl)oxy)-4-((1S,4S)-2,5-diazabicyclo[2.2.1]heptan-2-yl)-6-cyclopropyl-7-(6-fluoro-5-methyl-1H-indazol-4-yl)quinazolin-8-yl)oxy)methyl)phenyl)-1H-1,2,3-triazol-1-yl)-3-methylbutanoyl)-4-hydroxy-N-((1R,2S)-2-hydroxy-1-(4-(4-methylthiazol-5-yl)phenyl)propyl)pyrrolidine-2-carboxamide] | < 10 nM | < 10 nM
2 | CO[C@@H](C)COc1nc(N2C[C@@H]3C[C@H]2CN3)c2cc(C3CC3)c(-c3c(C)c(F)c(Cl)c4[nH]ncc34)c(OCc3ccc(-c4cn([C@H](C(=O)N5C[C@H](O)C[C@H]5C(=O)N[C@@H](CO)c5ccc(-c6scnc6C)cc5)C(C)C)nn4)cc3)c2n1 [Example 97, (2S,4R)-1-((2S)-2-(4-(4-(((4-((1S,4S)-2,5-diazabicyclo[2.2.1]heptan-2-yl)-7-(7-chloro-6-fluoro-5-methyl-1H-indazol-4-yl)-6-cyclopropyl-2-((S)-2-methoxypropoxy)quinazolin-8-yl)oxy)methyl)phenyl)-1H-1,2,3-triazol-1-yl)-3-methylbutanoyl)-4-hydroxy-N—((R)-2-hydroxy-1-(4-(4-methylthiazol-5-yl)phenyl)ethyl)pyrrolidine-2-carboxamide] | < 10 nM | < 10 nM
3 | CO[C@@H](C)COc1nc(N2C[C@@H]3C[C@H]2CN3)c2cc(C3CC3)c(-c3c(C)c(F)cc4[nH]ncc34)c(OCc3ccc(-c4cn([C@H](C(=O)N5C[C@H](O)C[C@H]5C(=O)N[C@H](C#Cc5cccc(F)c5Cl)CO)C(C)C)nn4)cc3)c2n1 [Example 98, (2S,4R)-1-((2S)-2-(4-(4-(((4-((1S,4S)-2,5-diazabicyclo[2.2.1]heptan-2-yl)-6-cyclopropyl-7-(6-fluoro-5-methyl-1H-indazol-4-yl)-2-((S)-2-methoxypropoxy)quinazolin-8-yl)oxy)methyl)phenyl)-1H-1,2,3-triazol-1-yl)-3-methylbutanoyl)-N—((R)-4-(2-chloro-3-fluorophenyl)-1-hydroxybut-3-yn-2-yl)-4-hydroxypyrrolidine-2-carboxamide] | 10 to 100 nM | < 10 nM
4 | CCn1nccc1-c1ccc([C@H](CO)NC(=O)[C@@H]2C[C@@H](O)CN2C(=O)[C@H](C(C)C)n2cc(-c3ccc(COc4c(-c5c(C)c(F)c(F)c6[nH]ncc56)c(C5CC5)cc5c(N6C[C@@H]7C[C@H]6CN7)nc(O[C@H]6CC[C@H](OC)CC6)nc45)cc3)nn2)cc1 [Example 99, (2S,4R)-1-((2S)-2-(4-(4-(((4-((1S,4S)-2,5-diazabicyclo[2.2.1]heptan-2-yl)-6-cyclopropyl-7-(6,7-difluoro-5-methyl-1H-indazol-4-yl)-2-(((1r,4S)-4-methoxycyclohexyl)oxy)quinazolin-8-yl)oxy)methyl)phenyl)-1H-1,2,3-triazol-1-yl)-3-methylbutanoyl)-N—((R)-1-(4-(1-ethyl-1H-pyrazol-5-yl)phenyl)-2-hydroxyethyl)-4-hydroxypyrrolidine-2-carboxamide] | < 10 nM | < 10 nM
